# Test results taken from US20180028516A1, “METHODS AND DEVICES FOR THE TREATMENT OF OCULAR DISEASES IN HUMAN SUBJECTS” (CLEARSIDE BIOMEDICAL, INC., priority 2012, published 2018).
# Columns and labels:
# [1] = Safety endpoints (mortality, body weights, ocular observations, IOP) in the rabbit uveitis study (Example 11); type: in vivo, New Zealand White rabbits
# Procedure: (§1) In this study, the effects of pretreatment with suprachoroidal or intravitreal triamcinolone acetonide (TA) in a subretinal endotoxin-induced model of posterior segment uveitis in New Zealand White rabbits was evaluated.
# (§2) On Day 1, female rabbits (4 eyes/group) received a single unilateral injection of vehicle or 4 mg TA (Triesence®, 40 mg/mL suspension, Alcon Labs) into the suprachoroidal space (SCS) using a 33 g 750 μm microneedle, or a 4 mg TA IVT injection using a standard 30 g needle. On Day 6, each animal received a single unilateral subretinal injection of lipopolysaccharide (LPS, 20-30 μL, 203 μg/g of 1% sodium hylauronate) to induce ocular inflammation in the treated eye. Animals were monitored for 22 days following dose administration. Endpoints included body weights, ocular observations, slit lamp biomicroscopy with McDonald-Shadduck scoring and photography, indirect ophthalmoscopy, fundus photography, intraocular pressure (IOP), and histopathology. A summary of the study design is shown below, in Table 6.
# [2] = tested on: subretinal endotoxin-induced model of posterior segment uveitis; experiment: Subretinal endotoxin-induced model of posterior segment uveitis, pretreatment with SCS or IVT TA (Example 11); type: in vivo, New Zealand White rabbits
# Procedure: as §1, §2
# [3] = Ocular and systemic pharmacokinetics of TA, SCS vs IVT (Example 10); type: in vivo, New Zealand White rabbit
# Procedure: In this study, the ocular and systemic pharmacokinetics (PK) of triar cinolone acetonide (TA) in the New Zealand White rabbit following intravitreal […] injection or administration into the suprachoroidal space (SCS) using a hollow rnicroneedle were evaluated.
# On Day 0, male rabbits (5 per group) received a single bilateral administration of 4 mg TA (100 μL Triesence triamcinolone formulationAlcon Labs) via SCS injection using a 33 g 750 μm microneedle or an IVT injection using a standard 30 g needle. The study design is shown below in Table 4.
# Clinical observations, body weights, and intraocular pressure (IOP) were assessed up to 13 weeks post-dose. Plasma and ocular matrixes (aqueous humor (AH), lens, iris/ciliary body (ICB), vitreous humor (VH), sclera/choroid (SC), and retina) were sampled on Days 1, 14, 28, 56, and 91. Plasma (LLOQ 0.5 ng/mL) and ocular matrixes (LLOQ 2 -15 ng/mL) were analyzed using LC-MS/MS, and resulting data were assessed for noncompartmentat PK parameters.
# [4] = Intraocular pressure and tolerability in porcine uveitis study (Example 13); type: in vivo, domestic weanling pigs
# Procedure: Intraocular pressure (IOP) was measured at −6, −4, −1, 0, 1, 2, and 3 days using a TonoVet Tonometer (Care, Finland). In addition, IOP was measured 1, 3, and 6 hours after SCS or IVT injections on Day 0. The measurements were collected without use of topical anesthetic, per manufacturer recommendation. Conditioning of the pigs during acclimation permitted routine ocular examinations and IOP measurements to he done with minimal manual restraint. The tip of the tonometer probe was directed to contact the central cornea and 6 measurements were made consecutively. After the six measurements, the mean IOP was shown on the display providing the IOP that was recorded.
smiles,measurement,setting,value
"CC1(C)O[C@@H]2C[C@H]3[C@@H]4CCC5=CC(=O)C=C[C@]5(C)[C@@]4(F)[C@@H](O)C[C@]3(C)[C@]2(C(=O)CO)O1 [TA, triamcinolone acetonide]",IOP after SCS TA administration,[1]; 4 mg TA SCS,no significant increase
same,"effects on mortality, body weights, or ocular observations",[1]; 4 mg TA SCS or IVT,no test article- or administration-related effects
same,Iris vessel dilation and tortuosity compared with the SCS vehicle group,[2]; 4 mg TA IVT,reduced to a lesser extent
same,"Vitritis, aqueous flare, and cellularity compared to SCS vehicle eyes",[2]; 4 mg TA IVT,substantially less severe
same,inflammation as assessed histopathologically compared with the vehicle group,[2]; 4 mg TA IVT,marked reduction
same,Iris vessel dilation and tortuosity compared with the SCS vehicle group,[2]; 4 mg TA SCS,reduced
same,"Vitritis, aqueous flare, and cellularity compared to SCS vehicle eyes",[2]; 4 mg TA SCS,substantially less severe
same,inflammation as assessed histopathologically compared with the vehicle group,[2]; 4 mg TA SCS,marked reduction
same,"effectiveness in reducing the inflammatory response, SCS vs IVT",[2]; 4 mg TA SCS by hollow microneedle,as effective as 4 mg IVT TA
same,overall inflammatory response / inflammatory endpoints compared to vehicle control,"[2]; 4 mg TA SCS, pretreatment Day 1, LPS Day 6",significant reduction
same,"increase of AUC in VH, IVT TA compared with SCS TA",[3]; 4 mg TA,52 fold
same,"increase of AUC in aqueous Humor, IVT TA compared with SCS TA",[3]; 4 mg TA,63 fold
same,"increase of AUC in iris/ciliary body, IVT TA compared with SCS TA",[3]; 4 mg TA,44 fold
same,"increase of AUC in lens, IVT TA compared with SCS TA",[3]; 4 mg TA,690 fold
same,"increase of AUC in the sclera/choroid, SCS TA compared with IVT TA",[3]; 4 mg TA,11 fold
same,"increase of Cmax in VH, IVT TA compared with SCS TA",[3]; 4 mg TA,4 fold
same,"increase of Cmax in aqueous Humor, IVT TA compared with SCS TA",[3]; 4 mg TA,250 fold
same,"increase of Cmax in iris/ciliary body, IVT TA compared with SCS TA",[3]; 4 mg TA,24 fold
same,"increase of Cmax in lens, IVT TA compared with SCS TA",[3]; 4 mg TA,290 fold
same,"increase of Cmax in the sclera/choroid, SCS TA compared with IVT TA",[3]; 4 mg TA,10 fold
same,AUC0-t,"[3]; Aqueous Humor, IVT 4 mg TA","8,500 ng · day/mL"
same,Clast,"[3]; Aqueous Humor, IVT 4 mg TA",42 ng/mL
same,Cmax,"[3]; Aqueous Humor, IVT 4 mg TA",269 ng/mL
same,Tlast,"[3]; Aqueous Humor, IVT 4 mg TA",91 days
same,Tmax,"[3]; Aqueous Humor, IVT 4 mg TA",336 h
same,Clast,"[3]; Aqueous Humor, SCS 4 mg TA",16 ng/mL
same,Cmax,"[3]; Aqueous Humor, SCS 4 mg TA",16 ng/mL
same,Tlast,"[3]; Aqueous Humor, SCS 4 mg TA",28 days
same,AUC0-t,"[3]; Iris/Ciliary body, IVT 4 mg TA","40,900,000 ng · day/mL"
same,Clast,"[3]; Iris/Ciliary body, IVT 4 mg TA","463,000 ng/mL"
same,Cmax,"[3]; Iris/Ciliary body, IVT 4 mg TA","1,260,000 ng/mL"
same,Tlast,"[3]; Iris/Ciliary body, IVT 4 mg TA",91 days
same,Tmax,"[3]; Iris/Ciliary body, IVT 4 mg TA",24 h
same,AUC0-t,"[3]; Iris/Ciliary body, SCS 4 mg TA","1,190,000 ng · day/mL"
same,AUC0-∞,"[3]; Iris/Ciliary body, SCS 4 mg TA","1,190,000 ng · day/mL"
same,Clast,"[3]; Iris/Ciliary body, SCS 4 mg TA",247 ng/mL
same,Cmax,"[3]; Iris/Ciliary body, SCS 4 mg TA","50,200 ng/mL"
same,T1/2,"[3]; Iris/Ciliary body, SCS 4 mg TA",220 h
same,Tlast,"[3]; Iris/Ciliary body, SCS 4 mg TA",91 days
same,Tmax,"[3]; Iris/Ciliary body, SCS 4 mg TA",24 h
same,AUC0-t,"[3]; Lens, IVT 4 mg TA","12,600,000 ng · day/mL"
same,Clast,"[3]; Lens, IVT 4 mg TA","40,300 ng/mL"
same,Cmax,"[3]; Lens, IVT 4 mg TA","540,000 ng/mL"
same,Tlast,"[3]; Lens, IVT 4 mg TA",91 days
same,Tmax,"[3]; Lens, IVT 4 mg TA",336 h
same,AUC0-t,"[3]; Lens, SCS 4 mg TA","27,400 ng · day/mL"
same,Clast,"[3]; Lens, SCS 4 mg TA",9 ng/mL
same,Cmax,"[3]; Lens, SCS 4 mg TA","1,870 ng/mL"
same,Tlast,"[3]; Lens, SCS 4 mg TA",91 days
same,Tmax,"[3]; Lens, SCS 4 mg TA",24 h
same,AUC0-t,"[3]; Retina, IVT 4 mg TA","25,100,000 ng · day/mL"
same,AUC0-∞,"[3]; Retina, IVT 4 mg TA","26,300,000 ng · day/mL"
same,Clast,"[3]; Retina, IVT 4 mg TA","41,500 ng/mL"
same,Cmax,"[3]; Retina, IVT 4 mg TA","781,000 ng/mL"
same,T1/2,"[3]; Retina, IVT 4 mg TA",504 h
same,Tlast,"[3]; Retina, IVT 4 mg TA",91 days
same,Tmax,"[3]; Retina, IVT 4 mg TA",336 h
same,AUC0-t,"[3]; Retina, SCS 4 mg TA","24,600,000 ng · day/mL"
same,Clast,"[3]; Retina, SCS 4 mg TA","2,600 ng/mL"
same,Cmax,"[3]; Retina, SCS 4 mg TA","907,000 ng/mL"
same,Tlast,"[3]; Retina, SCS 4 mg TA",91 days
same,Tmax,"[3]; Retina, SCS 4 mg TA",24 h
same,quantifiability of TA in ocular matrixes,"[3]; SCS and IVT, 4 mg TA",quantifiable in all ocular matrixes through Day 91
same,AUC0-t,"[3]; Sclera/choroid, IVT 4 mg TA","8,640,000 ng · day/mL"
same,AUC0-∞,"[3]; Sclera/choroid, IVT 4 mg TA","10,300,000 ng · day/mL"
same,Clast,"[3]; Sclera/choroid, IVT 4 mg TA","27,100 ng/mL"
same,Cmax,"[3]; Sclera/choroid, IVT 4 mg TA","235,000 ng/mL"
same,T1/2,"[3]; Sclera/choroid, IVT 4 mg TA",1030 h
same,Tlast,"[3]; Sclera/choroid, IVT 4 mg TA",91 days
same,Tmax,"[3]; Sclera/choroid, IVT 4 mg TA",336 h
same,AUC0-t,"[3]; Sclera/choroid, SCS 4 mg TA","101,000,000 ng · day/mL"
same,AUC0-∞,"[3]; Sclera/choroid, SCS 4 mg TA","101,000,000 ng · day/mL"
same,Clast,"[3]; Sclera/choroid, SCS 4 mg TA","34,000 ng/mL"
same,Cmax,"[3]; Sclera/choroid, SCS 4 mg TA","2,860,000 ng/mL"
same,T1/2,"[3]; Sclera/choroid, SCS 4 mg TA",264 h
same,Tlast,"[3]; Sclera/choroid, SCS 4 mg TA",91 days
same,Tmax,"[3]; Sclera/choroid, SCS 4 mg TA",24 h
same,AUC0-t,"[3]; Vitreous Humor, IVT 4 mg TA","77,600,000 ng · day/mL"
same,AUC0-∞,"[3]; Vitreous Humor, IVT 4 mg TA","85,500,000 ng · day/mL"
same,Clast,"[3]; Vitreous Humor, IVT 4 mg TA","218,000 ng/mL"
same,Cmax,"[3]; Vitreous Humor, IVT 4 mg TA","1,640,000 ng/mL"
same,T1/2,"[3]; Vitreous Humor, IVT 4 mg TA",600 h
same,Tlast,"[3]; Vitreous Humor, IVT 4 mg TA",91 days
same,Tmax,"[3]; Vitreous Humor, IVT 4 mg TA",24 h
same,AUC0-t,"[3]; Vitreous Humor, SCS 4 mg TA","3,460,000 ng · day/mL"
same,Clast,"[3]; Vitreous Humor, SCS 4 mg TA",10 ng/mL
same,Cmax,"[3]; Vitreous Humor, SCS 4 mg TA","287,000 ng/mL"
same,Tlast,"[3]; Vitreous Humor, SCS 4 mg TA",91 days
same,Tmax,"[3]; Vitreous Humor, SCS 4 mg TA",24 h
same,systemic exposure,"[3]; either route (IVT or SCS), 4 mg TA",minimal
same,TA peak concentration in plasma,"[3]; peaked on Day 1, both groups (SCS and IVT, 4 mg TA)",4 ng/mL
same,"adverse effects, increased IOP, procedural or acute drug toxicity","[4]; TA into the SCS, porcine eyes","no adverse effects, increased IOP, or evidence of procedural or acute drug toxicity"
same,tolerability of TA delivered to the SCS using microneedles,[4]; up to three days after injection in porcine eyes,tolerated with an acceptable safety profile
